# Target: human MGL from HeLa cells (Homo sapiens (Human), UniProt Q99685)
# Experiment: MGL in vitro activity assay: cleavage of [glycerol-1,3-3H]-oleyl glycerol, activated carbon filtration
# Format: biochemical
# Settings: 300 nM [Glycerol-1,3-3H]-oleyl glycerol, endogenously expressed MGL from HeLa cells, one hour incubation
# Procedure: The assay used to measure the in vitro activity of MGL is adapted from the assay used for another serine hydrolase (FAAH) described in Wilson et al., 2003 (A high-throughput-compatible assay for determining the activity of fatty acid amide hydrolase. Wilson S J, Lovenberg T W, Barbier A J. Anal Biochem. 2003 Jul. 15; 318(2):270-5.). The assay consists of combining endogenously expressed MGL from HeLa cells with test compounds, adding [glycerol-1,3-^3H]-oleyl glycerol, incubating for one hour, and then measuring the amount of cleaved [1,3-^3H]-glycerol that passes through an activated carbon filter. The amount of cleaved, tritiated glycerol passing through the carbon filter is proportional to the activity of the MGL enzyme in a particular well/test condition.
# Standard conditions for this assay combine 300 nM [Glycerol-1,3-^3H]-oleyl glycerol with human MGL from HeLa cells and test compounds for one hour, after which the reaction is filtered through activated carbon and tritium is measured in the flow through. The test compound concentration in screening mode is 10 μM, while the highest compound concentration in IC50 assays is determined empirically. MGL is the predominant hydrolase in HeLa cells/cell homogenates.
# Chain of human MGL from HeLa cells (Q99685 whole entry): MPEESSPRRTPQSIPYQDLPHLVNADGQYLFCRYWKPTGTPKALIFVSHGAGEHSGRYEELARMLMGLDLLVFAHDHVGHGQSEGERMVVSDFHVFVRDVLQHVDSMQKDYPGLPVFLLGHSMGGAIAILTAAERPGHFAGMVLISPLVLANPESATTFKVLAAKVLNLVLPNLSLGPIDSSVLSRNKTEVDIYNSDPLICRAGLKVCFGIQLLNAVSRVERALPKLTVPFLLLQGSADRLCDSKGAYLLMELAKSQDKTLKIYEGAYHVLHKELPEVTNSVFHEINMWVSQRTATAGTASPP
row,IC50 [µM],SMILES
1,0.019,"C[C@H]1c2nn(C)c(-c3cc(C(F)(F)F)n(C)n3)c2CCN1C(=O)c1cnn2cccc(F)c12 [Example 19, (S)-(2,7-Dimethyl-3-(1-methyl-5-(trifluoromethyl)-1H-pyrazol-3-yl)-2,4,5,7-tetrahydro-6H-pyrazolo[3,4-c]pyridin-6-yl)(4-fluoropyrazolo[1,5-a]pyridin-3-yl)methanone]"
2,0.0082,"COc1cc(C(=O)N2CCc3c(nn(C)c3-c3cc(C(F)(F)F)n(C)n3)[C@@H]2C)c2ccccc2n1 [Example 20, (S)-(2,7-Dimethyl-3-(1-methyl-5-(trifluoromethyl)-1H-pyrazol-3-yl)-2,4,5,7-tetrahydro-6H-pyrazolo[3,4-c]pyridin-6-yl)(2-methoxyquinolin-4-yl)methanone]"
3,0.0056,"C[C@H]1c2nn(C)c(-c3cc(C(F)(F)F)nn3C)c2CCN1C(=O)c1ccc(F)c2c1cnn2C [Example 21, (S)-(2,7-Dimethyl-3-(1-methyl-3-(trifluoromethyl)-1H-pyrazol-5-yl)-2,4,5,7-tetrahydro-6H-pyrazolo[3,4-c]pyridin-6-yl)(7-fluoro-1-methyl-1H-indazol-4-yl)methanone]"
4,0.03,"C[C@H]1c2nn(C)c(-c3cc(C(F)(F)F)nn3C)c2CCN1C(=O)c1nn(C)c2ccc(F)cc12 [Example 22, (S)-(2,7-Dimethyl-3-(1-methyl-3-(trifluoromethyl)-1H-pyrazol-5-yl)-2,4,5,7-tetrahydro-6H-pyrazolo[3,4-c]pyridin-6-yl)(5-fluoro-1-methyl-1H-indazol-3-yl)methanone]"
5,0.084,"C[C@H]1c2nn(C)c(-c3cc(C(F)(F)F)nn3C)c2CCN1C(=O)c1cccc2nn(C)cc12 [Example 23, (S)-(2,7-Dimethyl-3-(1-methyl-3-(trifluoromethyl)-1H-pyrazol-5-yl)-2,4,5,7-tetrahydro-6H-pyrazolo[3,4-c]pyridin-6-yl)(2-methyl-2H-indazol-4-yl)methanone]"
6,1.76,"Cc1nc2cc(F)ccc2cc1C(=O)N1CCc2c(nn(C)c2-c2cc(C(F)(F)F)nn2C)[C@@H]1C [Example 24, (S)-(2,7-Dimethyl-3-(1-methyl-3-(trifluoromethyl)-1H-pyrazol-5-yl)-2,4,5,7-tetrahydro-6H-pyrazolo[3,4-c]pyridin-6-yl)(7-fluoro-2-methylquinolin-3-yl)methanone]"
7,0.09,"Cc1ccc2nc(C)cc(C(=O)N3CCc4c(nn(C)c4-c4cc(C(F)(F)F)nn4C)[C@@H]3C)c2c1 [Example 25, (S)-(2,7-Dimethyl-3-(1-methyl-3-(trifluoromethyl)-1H-pyrazol-5-yl)-2,4,5,7-tetrahydro-6H-pyrazolo[3,4-c]pyridin-6-yl)(2,6-dimethylquinolin-4-yl)methanone]"
8,0.88,"COc1ccc2nc(C)cc(C(=O)N3CCc4c(nn(C)c4-c4cc(C(F)(F)F)nn4C)[C@@H]3C)c2c1 [Example 26, (S)-(2,7-Dimethyl-3-(1-methyl-3-(trifluoromethyl)-1H-pyrazol-5-yl)-2,4,5,7-tetrahydro-6H-pyrazolo[3,4-c]pyridin-6-yl)(6-methoxy-2-methylquinolin-4-yl)methanone]"
9,1.17,"C[C@H]1c2nn(C)c(-c3cnn(C)c3C(F)(F)F)c2CCN1C(=O)c1nn(C)c2cc(F)cc(F)c12 [Example 27, (S)-(4,6-Difluoro-1-methyl-1H-indazol-3-yl)(2,7-dimethyl-3-(1-methyl-5-(trifluoromethyl)-1H-pyrazol-4-yl)-2,4,5,7-tetrahydro-6H-pyrazolo[3,4-c]pyridin-6-yl)methanone]"
10,2.12,"C[C@H]1c2nn(C)c(-c3cnn(C)c3C(F)(F)F)c2CCN1C(=O)c1n[nH]c2cc(F)cc(F)c12 [Example 28, (S)-(4,6-Difluoro-1H-indazol-3-yl)(2,7-dimethyl-3-(1-methyl-5-(trifluoromethyl)-1H-pyrazol-4-yl)-2,4,5,7-tetrahydro-6H-pyrazolo[3,4-c]pyridin-6-yl)methanone]"
11,0.15,"C[C@H]1c2nn(C)c(-c3cc(C(F)(F)F)nn3C)c2CCN1C(=O)c1ccccc1C(F)(F)F [Example 29, (S)-(2,7-Dimethyl-3-(1-methyl-3-(trifluoromethyl)-1H-pyrazol-5-yl)-2,4,5,7-tetrahydro-6H-pyrazolo[3,4-c]pyridin-6-yl)(2-(trifluoromethyl)phenyl)methanone]"
12,3.07,"Cc1ccc(C(=O)N2CCc3c(nn(C)c3-c3cnn(C)c3C(F)(F)F)[C@@H]2C)c(F)c1 [Example 30, (S)-(2,7-Dimethyl-3-(1-methyl-5-(trifluoromethyl)-1H-pyrazol-4-yl)-2,4,5,7-tetrahydro-6H-pyrazolo[3,4-c]pyridin-6-yl)(2-fluoro-4-methylphenyl)methanone]"
13,10,"C[C@H]1c2nn(C)c(-c3cnn(C)c3C(F)(F)F)c2CCN1C(=O)c1cccc2cnn(C)c12 [Example 31, (S)-(2,7-Dimethyl-3-(1-methyl-5-(trifluoromethyl)-1H-pyrazol-4-yl)-2,4,5,7-tetrahydro-6H-pyrazolo[3,4-c]pyridin-6-yl)(1-methyl-1H-indazol-7-yl)methanone]"
14,4.56,"C[C@H]1c2nn(C)c(-c3cnn(C)c3C(F)(F)F)c2CCN1C(=O)c1ccnc2c1cnn2C [Example 32, (S)-(2,7-Dimethyl-3-(1-methyl-5-(trifluoromethyl)-1H-pyrazol-4-yl)-2,4,5,7-tetrahydro-6H-pyrazolo[3,4-c]pyridin-6-yl)(1-methyl-1H-pyrazolo[3,4-b]pyridin-4-yl)methanone]"
15,6.47,"Cc1ccc2cc(C(=O)N3CCc4c(nn(C)c4-c4cnn(C)c4C(F)(F)F)[C@@H]3C)cc(C)c2n1 [Example 33, (S)-(2,7-Dimethyl-3-(1-methyl-5-(trifluoromethyl)-1H-pyrazol-4-yl)-2,4,5,7-tetrahydro-6H-pyrazolo[3,4-c]pyridin-6-yl)(2,8-dimethylquinolin-6-yl)methanone]"
16,2.19,"Cc1cc(C(=O)N2CCc3c(nn(C)c3-c3cnn(C)c3C(F)(F)F)[C@@H]2C)c2cc(F)ccc2n1 [Example 34, (S)-(2,7-Dimethyl-3-(1-methyl-5-(trifluoromethyl)-1H-pyrazol-4-yl)-2,4,5,7-tetrahydro-6H-pyrazolo[3,4-c]pyridin-6-yl)(6-fluoro-2-methylquinolin-4-yl)methanone]"
17,0.025,"COc1cccc(C(=O)N2CCc3c(nn(C)c3-c3cc(C(F)(F)F)nn3C)[C@@H]2C)c1Cl [Example 35, (S)-(2-Chloro-3-methoxyphenyl)(2,7-dimethyl-3-(1-methyl-3-(trifluoromethyl)-1H-pyrazol-5-yl)-2,4,5,7-tetrahydro-6H-pyrazolo[3,4-c]pyridin-6-yl)methanone]"
18,0.023,"COc1cccc(C(=O)N2CCc3c(nn(C)c3-c3cc(C(F)(F)F)nn3C)[C@@H]2C)c1C [Example 36, (S)-(2,7-Dimethyl-3-(1-methyl-3-(trifluoromethyl)-1H-pyrazol-5-yl)-2,4,5,7-tetrahydro-6H-pyrazolo[3,4-c]pyridin-6-yl)(3-methoxy-2-methylphenyl)methanone]"
19,0.38,"C[C@H]1c2nn(C)c(-c3cc(C(F)(F)F)nn3C)c2CCN1C(=O)c1cc(F)ccc1-n1cccn1 [Example 37, (S)-(2,7-Dimethyl-3-(1-methyl-3-(trifluoromethyl)-1H-pyrazol-5-yl)-2,4,5,7-tetrahydro-6H-pyrazolo[3,4-c]pyridin-6-yl)(5-fluoro-2-(1H-pyrazol-1-yl)phenyl)methanone]"
20,0.073,"COc1cccc(C(=O)N2CCc3c(nn(C)c3-c3cc(C(F)(F)F)nn3C)[C@@H]2C)c1 [Example 38, (S)-(2,7-Dimethyl-3-(1-methyl-3-(trifluoromethyl)-1H-pyrazol-5-yl)-2,4,5,7-tetrahydro-6H-pyrazolo[3,4-c]pyridin-6-yl)(3-methoxyphenyl)methanone]"
21,0.038,"COc1cc(Cl)cc(C(=O)N2CCc3c(nn(C)c3-c3cc(C(F)(F)F)nn3C)[C@@H]2C)c1 [Example 39, (S)-(3-Chloro-5-methoxyphenyl)(2,7-dimethyl-3-(1-methyl-3-(trifluoromethyl)-1H-pyrazol-5-yl)-2,4,5,7-tetrahydro-6H-pyrazolo[3,4-c]pyridin-6-yl)methanone]"
22,0.23,"COc1ccc(C(=O)N2CCc3c(nn(C)c3-c3cc(C(F)(F)F)nn3C)[C@@H]2C)c(C)c1 [Example 40, (S)-(2,7-Dimethyl-3-(1-methyl-3-(trifluoromethyl)-1H-pyrazol-5-yl)-2,4,5,7-tetrahydro-6H-pyrazolo[3,4-c]pyridin-6-yl)(4-methoxy-2-methylphenyl)methanone]"
23,0.062,"COc1cc(C)ccc1C(=O)N1CCc2c(nn(C)c2-c2cc(C(F)(F)F)nn2C)[C@@H]1C [Example 41, (S)-(2,7-Dimethyl-3-(1-methyl-3-(trifluoromethyl)-1H-pyrazol-5-yl)-2,4,5,7-tetrahydro-6H-pyrazolo[3,4-c]pyridin-6-yl)(2-methoxy-4-methylphenyl)methanone]"
24,0.1,"COc1ccc(C(=O)N2CCc3c(nn(C)c3-c3cc(C(F)(F)F)nn3C)[C@@H]2C)c(Cl)c1 [Example 42, (S)-(2-Chloro-4-methoxyphenyl)(2,7-dimethyl-3-(1-methyl-3-(trifluoromethyl)-1H-pyrazol-5-yl)-2,4,5,7-tetrahydro-6H-pyrazolo[3,4-c]pyridin-6-yl)methanone]"
25,0.033,"Cc1ccc(C(=O)N2CCc3c(nn(C)c3-c3cc(C(F)(F)F)nn3C)[C@@H]2C)cc1C [Example 43, (S)-(2,7-Dimethyl-3-(1-methyl-3-(trifluoromethyl)-1H-pyrazol-5-yl)-2,4,5,7-tetrahydro-6H-pyrazolo[3,4-c]pyridin-6-yl)(3,4-dimethylphenyl)methanone]"

# — US11891387B2, “Monoacylglycerol lipase modulators” (Janssen Pharmaceutica NV, priority 2020, dated 2024)
